From the NIST ThermoML archive (doi:10.1016/j.jct.2017.03.006)

Assay: xn = mol fraction of the nth substance listed
Details: Liquid; for viscosity: Concentric cylinders viscometry; for mass density: Vibrating tube method

Cc1ccc(C)c(C)c1 [1,2,4-trimethylbenzene] + CCC(C)O
Details	mass density [kg/m3]	viscosity [mPa·s]
323.15 K, 100 kPa, x2 = 0.7001	–	0.78
323.15 K, 100 kPa, x2 = 0.7997	–	0.88
323.15 K, 100 kPa, x2 = 0.9001	–	1.04
333.15 K, 100 kPa, x2 = 0	843.6	0.562
333.15 K, 100 kPa, x2 = 0.1	835.7	–
333.15 K, 100 kPa, x2 = 0.1001	–	0.558
333.15 K, 100 kPa, x2 = 0.1989	829.2	–
333.15 K, 100 kPa, x2 = 0.2261	–	0.554
333.15 K, 100 kPa, x2 = 0.3	–	0.548
333.15 K, 100 kPa, x2 = 0.3011	822.5	–
333.15 K, 100 kPa, x2 = 0.3966	–	0.568
333.15 K, 100 kPa, x2 = 0.4002	816	–
333.15 K, 100 kPa, x2 = 0.5001	809.8	–
333.15 K, 100 kPa, x2 = 0.5298	–	0.567
333.15 K, 100 kPa, x2 = 0.5997	802.2	–
333.15 K, 100 kPa, x2 = 0.6001	–	0.6
333.15 K, 100 kPa, x2 = 0.6999	794.7	–
333.15 K, 100 kPa, x2 = 0.7001	–	0.65
333.15 K, 100 kPa, x2 = 0.7997	–	0.72
333.15 K, 100 kPa, x2 = 0.7999	787.1	–
333.15 K, 100 kPa, x2 = 0.9	779.1	–
333.15 K, 100 kPa, x2 = 0.9001	–	0.82
333.15 K, 1000 kPa, x2 = 0	844.4	–
333.15 K, 1000 kPa, x2 = 0.1	836.5	–
333.15 K, 1000 kPa, x2 = 0.1989	830	–
333.15 K, 1000 kPa, x2 = 0.3011	823.3	–
333.15 K, 1000 kPa, x2 = 0.4002	816.8	–
333.15 K, 1000 kPa, x2 = 0.5001	810.7	–
333.15 K, 1000 kPa, x2 = 0.5997	803.1	–
333.15 K, 1000 kPa, x2 = 0.6999	795.6	–
333.15 K, 1000 kPa, x2 = 0.7999	788	–
333.15 K, 1000 kPa, x2 = 0.9	780	–
333.15 K, 2000 kPa, x2 = 0	845.2	–
333.15 K, 2000 kPa, x2 = 0.1	837.4	–
333.15 K, 2000 kPa, x2 = 0.1989	830.9	–
333.15 K, 2000 kPa, x2 = 0.3011	824.2	–
333.15 K, 2000 kPa, x2 = 0.4002	817.8	–
333.15 K, 2000 kPa, x2 = 0.5001	811.7	–
333.15 K, 2000 kPa, x2 = 0.5997	804	–
333.15 K, 2000 kPa, x2 = 0.6999	796.6	–
333.15 K, 2000 kPa, x2 = 0.7999	789	–
333.15 K, 2000 kPa, x2 = 0.9	781	–
333.15 K, 5000 kPa, x2 = 0	847.6	–
333.15 K, 5000 kPa, x2 = 0.1	840	–
333.15 K, 5000 kPa, x2 = 0.1989	833.5	–
333.15 K, 5000 kPa, x2 = 0.3011	826.9	–
333.15 K, 5000 kPa, x2 = 0.4002	820.4	–
333.15 K, 5000 kPa, x2 = 0.5001	814.4	–
333.15 K, 5000 kPa, x2 = 0.5997	806.9	–
333.15 K, 5000 kPa, x2 = 0.6999	799.5	–
333.15 K, 5000 kPa, x2 = 0.7999	791.9	–
333.15 K, 5000 kPa, x2 = 0.9	784	–
333.15 K, 10000 kPa, x2 = 0	851.4	–
333.15 K, 10000 kPa, x2 = 0.1	843.9	–
333.15 K, 10000 kPa, x2 = 0.1989	837.6	–
333.15 K, 10000 kPa, x2 = 0.3011	831.1	–
333.15 K, 10000 kPa, x2 = 0.4002	824.7	–
333.15 K, 10000 kPa, x2 = 0.5001	818.7	–
333.15 K, 10000 kPa, x2 = 0.5997	811.3	–
333.15 K, 10000 kPa, x2 = 0.6999	803.9	–
333.15 K, 10000 kPa, x2 = 0.7999	796.5	–
333.15 K, 10000 kPa, x2 = 0.9	788.6	–
333.15 K, 15000 kPa, x2 = 0	855.1	–
333.15 K, 15000 kPa, x2 = 0.1	847.9	–
333.15 K, 15000 kPa, x2 = 0.1989	841.6	–
333.15 K, 15000 kPa, x2 = 0.3011	835.1	–
333.15 K, 15000 kPa, x2 = 0.4002	828.8	–
333.15 K, 15000 kPa, x2 = 0.5001	822.9	–
333.15 K, 15000 kPa, x2 = 0.5997	815.5	–
333.15 K, 15000 kPa, x2 = 0.6999	808.2	–
333.15 K, 15000 kPa, x2 = 0.7999	800.8	–
333.15 K, 15000 kPa, x2 = 0.9	793	–
333.15 K, 20000 kPa, x2 = 0	858.6	–
333.15 K, 20000 kPa, x2 = 0.1	851.6	–
333.15 K, 20000 kPa, x2 = 0.1989	845.4	–
333.15 K, 20000 kPa, x2 = 0.3011	839	–
333.15 K, 20000 kPa, x2 = 0.4002	832.7	–
333.15 K, 20000 kPa, x2 = 0.5001	826.9	–
333.15 K, 20000 kPa, x2 = 0.5997	819.5	–
333.15 K, 20000 kPa, x2 = 0.6999	812.3	–
333.15 K, 20000 kPa, x2 = 0.7999	805	–
333.15 K, 20000 kPa, x2 = 0.9	797.2	–
333.15 K, 30000 kPa, x2 = 0	865.3	–
333.15 K, 30000 kPa, x2 = 0.1	858.6	–
333.15 K, 30000 kPa, x2 = 0.1989	852.5	–
333.15 K, 30000 kPa, x2 = 0.3011	846.2	–
333.15 K, 30000 kPa, x2 = 0.4002	840.1	–
333.15 K, 30000 kPa, x2 = 0.5001	834.4	–
333.15 K, 30000 kPa, x2 = 0.5997	827.1	–
333.15 K, 30000 kPa, x2 = 0.6999	819.9	–
333.15 K, 30000 kPa, x2 = 0.7999	812.7	–
333.15 K, 30000 kPa, x2 = 0.9	805	–
333.15 K, 40000 kPa, x2 = 0	871.6	–
333.15 K, 40000 kPa, x2 = 0.1	865.1	–
333.15 K, 40000 kPa, x2 = 0.1989	859.1	–
333.15 K, 40000 kPa, x2 = 0.3011	852.9	–
333.15 K, 40000 kPa, x2 = 0.4002	846.8	–
333.15 K, 40000 kPa, x2 = 0.5001	841.2	–
333.15 K, 40000 kPa, x2 = 0.5997	834.1	–
333.15 K, 40000 kPa, x2 = 0.6999	826.9	–
